ChEMBL document CHEMBL1201862, “PubChem BioAssay data set” (2004)
Activity calls are given as the source filed them.

Tests used:
Fatty acid synthase [1] = molecular target: T1, Fatty acid synthase (Homo sapiens, UniProt P49327); experiment: FAS thioesterase domain inhibitors, dose response, biochemical, kinetic fluorescence intensity (AID 624326); type: functional;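 further: rate of fluorescence rise from hydrolysis of a fluorogenic O-methyl fluorescein ester substrate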
Fatty acid synthase [2] = molecular target: T1, Fatty acid synthase; experiment: FAS thioesterase domain inhibitors, dose response, biochemical, endpoint fluorescence intensity, uHTS hits (AID 624327); type: functional;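 further: fluorescence from hydrolysis of an O-methyl fluorescein acyl ester substrate by the enzyme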
[3] = Luminescence Cell-Based Dose Response HTS to Identify Inhibitors of 5'UTR Stem-Loop Driven Prion Protein mRNA Translation in H4 Neuroglioblastoma Cells. [Related pubchem assays: 1827 (Project Summary), 1813 (Primary HTS)]; type: functional
[4] = inhibitors of firefly luciferase expression or activity, dose response, H4 neuroglioma cells, luminescence (AID 1990); type: functional, cell-based
[5] = inhibitors of SNCA 5'UTR-driven reporter translation, confirmation, H4 neuroglioma cells, luminescence (AID 1988); type: functional, cell-based
[6] = molecular target: T2, Polyadenylate-binding protein 1 (Homo sapiens, UniProt P11940); experiment: PABP1 MLLE–PAM2 interaction inhibitors, dose response, miRNA deadenylation inhibitor project, biochemical, fluorescence polarization, Cy5-PAM2 peptide, secondary (AID 602260); type: functional; conditions: read-out: IC50_Mean
[7] = molecular target: T2, Polyadenylate-binding protein 1; experiment: PABP1 MLLE–PAM2 binding inhibitor potency, dose response, biochemical, fluorescence polarization, FITC-PAM2 peptide (AID 602259); type: functional; conditions: read-out: IC50_Mean
[8] = Luminescence Cell-Based Dose Response HTS to Identify Activators of Luciferase Translation or Activity in H4 […] Cells. [Related pubchem assays: 1829 (Project Summary), 1814 (Primary HTS)]; type: functional
[9] = Luminescence Cell-Based Dose Confirmation HTS to Identify Activators of 5'UTR Stem-Loop Driven Alpha-Synuclein mRNA Translation in H4 Neuroglioblastoma Cells. [Related pubchem assays: 1829 (Project Summary), 1814 (Primary HTS)]; type: functional
H4 = experiment: Luminescence Cell-Based Dose Response HTS to Identify Activators of 5'UTR Stem-Loop Driven Prion Protein mRNA Translation in H4 Neuroglioblastoma Cells. [Related pubchem assays: 1829 (Project Summary), 1814 (Primary HTS)]; type: functional; conditions: Homo sapiens
H9c2 = experiment: cells; type: functional, cell-based; conditions: Rattus norvegicus, H9c2, Myocardium;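 further: confirmatory concentration-response retest of ultra-high-throughput screening hits for modulation of myocardial damage; cell death induced by hydrogen peroxide oxidative stress; compound pretreatment for 60 min then peroxide exposure for 2 h; potency is for protecting the cells against peroxide damage rather than for killing them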
[10] = system: Streptococcus sp. 'group A'; experiment: growth inhibition of control SK(-) GAS strain, dose response, counter-screen for streptokinase expression inhibitor project, luminescence, kanamycin, BacTiterGlo, confirmation (AID 1900); type: functional, organism-based
Streptococcus = experiment: Group A Streptococcus viability loss, dose response, counter-screen for streptokinase expression inhibitor project, luminescence, BacTiterGlo (AID 1915); type: functional, organism-based;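 further: potency for reduction of bacterial viability or growth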
Streptokinase A = molecular target: T3, Streptokinase A (Streptococcus pyogenes serotype M1, UniProt P10520); experiment: S. pyogenes streptokinase expression inhibitors, potency, dose response, plasminogen activation absorbance, OD405 (AID 1914); type: functional, Streptococcus pyogenes M1 GAS;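 further: secreted streptokinase activity via plasminogen activation per viability signal from cell pellet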
T3 sequence (P10520 whole entry): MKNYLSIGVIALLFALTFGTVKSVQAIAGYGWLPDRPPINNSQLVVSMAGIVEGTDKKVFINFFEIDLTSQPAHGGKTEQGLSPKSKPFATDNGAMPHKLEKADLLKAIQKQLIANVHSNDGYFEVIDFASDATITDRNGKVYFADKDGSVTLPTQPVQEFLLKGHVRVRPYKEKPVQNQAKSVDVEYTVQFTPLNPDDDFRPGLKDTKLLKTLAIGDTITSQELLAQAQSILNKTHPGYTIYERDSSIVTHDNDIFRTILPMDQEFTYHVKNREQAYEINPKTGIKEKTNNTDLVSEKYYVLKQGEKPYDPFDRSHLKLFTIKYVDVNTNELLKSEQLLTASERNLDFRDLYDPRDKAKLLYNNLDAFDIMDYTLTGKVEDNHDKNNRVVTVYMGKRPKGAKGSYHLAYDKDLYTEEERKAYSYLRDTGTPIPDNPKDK

Cytochrome P450 1A2 = molecular target: T4, Cytochrome P450 1A2 (Homo sapiens, UniProt P05177);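 further: PubChem cytochrome P450 panel assay, CYP1A2 panel member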
T4 sequence (P05177 whole entry): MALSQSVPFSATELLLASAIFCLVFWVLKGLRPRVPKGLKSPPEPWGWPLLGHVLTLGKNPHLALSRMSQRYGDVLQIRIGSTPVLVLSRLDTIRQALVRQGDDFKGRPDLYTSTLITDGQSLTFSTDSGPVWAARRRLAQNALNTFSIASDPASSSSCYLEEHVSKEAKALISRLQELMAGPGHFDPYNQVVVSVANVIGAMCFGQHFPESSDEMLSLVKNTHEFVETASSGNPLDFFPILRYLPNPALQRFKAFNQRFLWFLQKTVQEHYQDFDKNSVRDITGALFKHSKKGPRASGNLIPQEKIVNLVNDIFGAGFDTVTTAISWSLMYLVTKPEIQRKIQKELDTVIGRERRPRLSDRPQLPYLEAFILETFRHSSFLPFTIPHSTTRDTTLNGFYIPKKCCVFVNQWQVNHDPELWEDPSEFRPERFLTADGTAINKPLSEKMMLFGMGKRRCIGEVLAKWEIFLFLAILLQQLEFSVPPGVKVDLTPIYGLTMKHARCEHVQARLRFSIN

Cytochrome P450 2C19 = Cytochrome P450 2C19 (Homo sapiens, UniProt P33261); experiment: Cytochrome panel assay with activity outcomes. Panel member name: p450-cyp2c19 Compounds with AC50 equal or less than 10 uM are considered active; type: functional; conditions: read-out: AC50
Sequence of Cytochrome P450 2C19 (P33261 whole entry): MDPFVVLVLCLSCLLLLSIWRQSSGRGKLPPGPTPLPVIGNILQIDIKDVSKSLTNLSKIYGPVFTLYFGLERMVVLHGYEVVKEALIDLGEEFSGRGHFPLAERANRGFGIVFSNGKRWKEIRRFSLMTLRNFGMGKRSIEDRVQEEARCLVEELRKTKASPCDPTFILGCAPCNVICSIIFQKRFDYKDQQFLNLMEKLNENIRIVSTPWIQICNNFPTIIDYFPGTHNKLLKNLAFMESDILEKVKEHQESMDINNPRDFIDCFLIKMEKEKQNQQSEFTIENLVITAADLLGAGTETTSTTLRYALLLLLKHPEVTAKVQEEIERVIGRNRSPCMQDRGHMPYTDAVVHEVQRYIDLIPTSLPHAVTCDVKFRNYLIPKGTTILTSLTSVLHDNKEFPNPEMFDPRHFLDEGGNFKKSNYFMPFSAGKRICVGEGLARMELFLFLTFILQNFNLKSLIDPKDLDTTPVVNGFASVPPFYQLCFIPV

T2 sequence (P11940 whole entry): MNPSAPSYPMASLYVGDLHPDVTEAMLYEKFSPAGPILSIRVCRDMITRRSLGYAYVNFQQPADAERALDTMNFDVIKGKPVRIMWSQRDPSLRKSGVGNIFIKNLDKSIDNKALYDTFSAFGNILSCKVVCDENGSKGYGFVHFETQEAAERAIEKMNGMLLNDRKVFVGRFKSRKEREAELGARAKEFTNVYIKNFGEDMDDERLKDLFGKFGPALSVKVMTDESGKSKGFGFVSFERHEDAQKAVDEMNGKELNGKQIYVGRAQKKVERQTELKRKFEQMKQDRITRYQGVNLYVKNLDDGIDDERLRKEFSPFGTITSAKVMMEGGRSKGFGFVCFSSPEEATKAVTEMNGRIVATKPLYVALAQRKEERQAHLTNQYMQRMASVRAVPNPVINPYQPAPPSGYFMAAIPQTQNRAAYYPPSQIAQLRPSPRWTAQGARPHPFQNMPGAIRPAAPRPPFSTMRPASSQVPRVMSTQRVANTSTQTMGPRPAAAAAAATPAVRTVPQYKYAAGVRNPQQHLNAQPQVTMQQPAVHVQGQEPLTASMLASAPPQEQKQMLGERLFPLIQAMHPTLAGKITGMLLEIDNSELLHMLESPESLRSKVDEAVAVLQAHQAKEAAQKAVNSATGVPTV
T1 sequence (P49327 whole entry, the tested form may be a part): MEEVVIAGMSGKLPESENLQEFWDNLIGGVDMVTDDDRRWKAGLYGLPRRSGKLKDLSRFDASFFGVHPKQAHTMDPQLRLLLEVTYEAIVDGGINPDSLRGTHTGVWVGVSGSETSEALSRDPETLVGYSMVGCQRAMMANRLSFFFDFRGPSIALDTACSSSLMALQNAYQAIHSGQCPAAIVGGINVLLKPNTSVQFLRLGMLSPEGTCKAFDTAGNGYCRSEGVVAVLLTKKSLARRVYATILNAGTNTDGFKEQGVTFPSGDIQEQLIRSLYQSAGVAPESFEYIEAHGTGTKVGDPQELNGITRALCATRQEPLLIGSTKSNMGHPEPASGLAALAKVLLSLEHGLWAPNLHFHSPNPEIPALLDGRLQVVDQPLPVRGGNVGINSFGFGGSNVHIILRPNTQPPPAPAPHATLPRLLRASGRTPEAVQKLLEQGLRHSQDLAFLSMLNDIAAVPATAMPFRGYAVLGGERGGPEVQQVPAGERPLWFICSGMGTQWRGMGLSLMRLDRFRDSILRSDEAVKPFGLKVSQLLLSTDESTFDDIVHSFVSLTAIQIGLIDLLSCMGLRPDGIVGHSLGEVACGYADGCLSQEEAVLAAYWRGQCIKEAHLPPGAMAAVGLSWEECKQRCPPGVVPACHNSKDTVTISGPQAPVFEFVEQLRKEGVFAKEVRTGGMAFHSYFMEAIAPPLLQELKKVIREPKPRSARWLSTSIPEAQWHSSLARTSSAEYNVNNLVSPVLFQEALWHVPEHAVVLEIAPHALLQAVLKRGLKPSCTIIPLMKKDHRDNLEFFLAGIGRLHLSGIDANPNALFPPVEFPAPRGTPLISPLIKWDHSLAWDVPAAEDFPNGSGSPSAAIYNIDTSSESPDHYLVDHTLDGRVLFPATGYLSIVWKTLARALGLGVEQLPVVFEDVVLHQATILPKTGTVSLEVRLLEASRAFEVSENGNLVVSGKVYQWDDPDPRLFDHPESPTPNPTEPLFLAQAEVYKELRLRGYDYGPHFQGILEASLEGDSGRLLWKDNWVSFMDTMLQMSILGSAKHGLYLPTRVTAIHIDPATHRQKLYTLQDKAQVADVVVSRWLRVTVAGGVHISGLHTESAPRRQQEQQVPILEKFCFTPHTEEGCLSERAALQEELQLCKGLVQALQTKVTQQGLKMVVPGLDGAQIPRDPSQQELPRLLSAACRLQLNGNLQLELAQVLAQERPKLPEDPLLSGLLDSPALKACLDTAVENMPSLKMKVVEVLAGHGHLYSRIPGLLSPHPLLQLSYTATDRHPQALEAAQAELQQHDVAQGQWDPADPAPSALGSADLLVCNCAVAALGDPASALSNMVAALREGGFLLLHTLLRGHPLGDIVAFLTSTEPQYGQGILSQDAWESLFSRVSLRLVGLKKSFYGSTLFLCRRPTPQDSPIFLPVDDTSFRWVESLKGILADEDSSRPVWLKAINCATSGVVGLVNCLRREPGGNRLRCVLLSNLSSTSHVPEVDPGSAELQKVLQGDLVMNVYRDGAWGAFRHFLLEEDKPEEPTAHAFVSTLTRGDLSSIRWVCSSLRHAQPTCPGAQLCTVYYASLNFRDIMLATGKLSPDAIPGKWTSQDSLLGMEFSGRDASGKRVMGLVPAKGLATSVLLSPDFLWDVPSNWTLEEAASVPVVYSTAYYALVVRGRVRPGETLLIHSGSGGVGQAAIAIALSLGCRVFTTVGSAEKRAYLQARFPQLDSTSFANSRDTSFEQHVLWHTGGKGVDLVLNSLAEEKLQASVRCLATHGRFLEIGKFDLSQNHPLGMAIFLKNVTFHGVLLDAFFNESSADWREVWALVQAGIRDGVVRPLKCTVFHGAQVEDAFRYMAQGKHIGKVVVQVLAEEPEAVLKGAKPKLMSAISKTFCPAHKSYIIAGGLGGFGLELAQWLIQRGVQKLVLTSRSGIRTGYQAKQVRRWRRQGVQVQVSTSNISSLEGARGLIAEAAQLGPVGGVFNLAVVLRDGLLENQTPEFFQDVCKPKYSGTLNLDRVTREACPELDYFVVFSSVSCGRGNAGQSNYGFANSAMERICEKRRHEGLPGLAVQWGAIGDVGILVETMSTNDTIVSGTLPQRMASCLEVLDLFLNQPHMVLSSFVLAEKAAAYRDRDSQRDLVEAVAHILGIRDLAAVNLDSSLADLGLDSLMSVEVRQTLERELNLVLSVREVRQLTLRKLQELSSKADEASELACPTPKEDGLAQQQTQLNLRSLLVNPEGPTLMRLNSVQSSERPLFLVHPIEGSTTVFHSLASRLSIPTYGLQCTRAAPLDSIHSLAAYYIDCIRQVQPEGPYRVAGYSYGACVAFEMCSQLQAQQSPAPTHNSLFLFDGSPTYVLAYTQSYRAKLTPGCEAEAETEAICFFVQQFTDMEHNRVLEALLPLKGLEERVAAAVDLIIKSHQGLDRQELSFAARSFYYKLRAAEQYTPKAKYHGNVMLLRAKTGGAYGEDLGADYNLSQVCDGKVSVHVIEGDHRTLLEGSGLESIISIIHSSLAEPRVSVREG

COC(=O)c1cc(C(=O)OCC(=O)c2ccc3c(c2)NC(=O)CO3)cc([N+](=O)[O-])c1
IC50 (Fatty acid synthase [1]): 30.9 µM (inactive)
IC50 (Fatty acid synthase [2]): 13.6 µM (active)

COc1cccc(C(=O)Nc2ccc3[nH]c(O)nc3c2)c1OC
EC50 [3]: > 120 µM (not active)
EC50 [4]: < 0.1 µM (active)

CNC(=O)c1cccn(Cc2cccc(C(F)(F)F)c2)c1=O
EC50 [3]: 42.8 µM (active)
EC50 [4]: > 120 µM (not active)
EC50 [5]: 14.6 µM (active)

COc1ccc(OC)c(S(=O)(=O)N2CCCCC2C(=O)N2CCN(c3ccccn3)CC2)c1 (stereo not drawn)
IC50 [6]: > 66 µM (inactive)
IC50 [7]: > 66 µM (inactive)

Cc1cc(C)nc(SCNC(=O)c2ccc(Cl)cc2)n1
IC50 [6]: > 66 µM (inactive)
IC50 [7]: > 66 µM (inactive)

Cc1nc2c(cc(Oc3ccc(S(=O)(=O)N4CCOCC4)cn3)c3ccsc32)s1
EC50 [8]: 15.5 µM (active)
EC50 [9]: 10.2 µM (active)
EC50 (H4): > 120 µM (not active)

O=C1c2ccccc2NC(c2ccccc2O)N1NS(=O)(=O)c1ccccc1 (stereo not drawn)
EC50 [8]: > 60 µM (not active)
EC50 [9]: > 120 µM (not active)
EC50 (H4): > 120 µM (not active)

CCc1ccc(NC(=O)C2CCN(S(=O)(=O)c3ccc4c(c3)NC(=O)CO4)CC2)cc1
EC50 [3]: > 120 µM (not active)
EC50 [4]: > 120 µM (not active)
EC50 [5]: > 120 µM (not active)

CC1(C(=O)NC(=S)N(CCC#N)c2ccccc2)CC1(Cl)Cl (stereo not drawn)
IC50 [6]: > 66 µM (inactive)
IC50 [7]: > 66 µM (inactive)

O=C(NC1CCCCCC1)C(=S)N1CCOCC1
IC50 [6]: > 66 µM (inactive)
IC50 [7]: > 66 µM (inactive)

NC(=NOC(=O)CCC1CCCCC1)c1cccc([N+](=O)[O-])c1
IC50 (Fatty acid synthase [1]): 6 µM (active)
IC50 (Fatty acid synthase [2]): 6.09 µM (active)

CC(=O)Nc1ccc(NC(=S)NC(=O)c2ccc([N+](=O)[O-])cc2)cc1
IC50 [6]: > 66 µM (inactive)
IC50 [7]: > 66 µM (inactive)

CN(C(=O)CSc1nncc2ccccc12)C1CCCCC1
EC50 [8]: 14.1 µM (active)
EC50 [9]: 10.5 µM (active)
EC50 (H4): 13.1 µM (active)

COCCOC(=O)C1=C(C)NC(=O)NC1c1c(Cl)nc2ccccn2c1=O (stereo not drawn)
IC50 [6]: > 66 µM (inactive)
IC50 [7]: > 66 µM (inactive)

Cc1cc(C(=O)CC#N)c(C)n1-c1c(C)n(C)n(-c2ccccc2)c1=O
EC50 [3]: > 120 µM (not active)
EC50 [4]: > 120 µM (not active)
EC50 [5]: > 120 µM (not active)

COc1cccc(C2C(C#N)=C(N)OC(C(C)(C)C)=C2C#N)c1 (stereo not drawn)
EC50 [8]: > 120 µM (not active)
EC50 [9]: > 120 µM (not active)
EC50 (H4): > 120 µM (not active)

O=C(Cc1cccc(C(F)(F)F)c1)OCN1C(=O)c2ccccc2C1=O
IC50 (Fatty acid synthase [1]): 11.6 µM (active)
IC50 (Fatty acid synthase [2]): 16.8 µM (active)

Fc1ccc(-c2ccnc3nc(-n4cccc4)nn23)cc1
EC50 [3]: > 120 µM (not active)
EC50 [4]: 39.7 µM (active)
EC50 [5]: > 120 µM (not active)

COc1cccc(C2Nc3ccc4ccccc4c3C3=C2C(=O)CCC3)c1O (stereo not drawn)
EC50 [3]: 32.1 µM (active)
EC50 [4]: 10 µM (active)
EC50 [5]: 11.7 µM (active)

CSc1ccc(CC(=O)N2CCC(n3nccc3NC(=O)C3CC3)CC2)cc1
EC50 [8]: 4.85 µM (active)
EC50 [9]: 15.2 µM (active)
EC50 (H4): > 120 µM (not active)

Cc1nn(C)cc1C(C(=O)NC1CCCCC1)N(C(=O)Cc1cccs1)c1ccc(C(C)C)cc1 (stereo not drawn)
IC50 (Fatty acid synthase [1]): 4.06 µM (active)
IC50 (Fatty acid synthase [2]): 8.86 µM (active)

CCOC(=O)C1=C(CSc2nc(-c3ccccc3)ccc2C#N)OC(N)=C(C#N)C1c1ccc(OC)cc1 (stereo not drawn)
EC50 [8]: 16.8 µM (active)
EC50 [9]: 12.3 µM (active)
EC50 (H4): 13.3 µM (active)

CCOc1ccc2[nH]c(SCC(=O)OC)c([N+](=O)[O-])c2c1
IC50 [6]: > 66 µM (inactive)
IC50 [7]: 41 µM (inactive)

O=C(O)CSc1nnc(NC(=O)c2ccc3c(c2)OCO3)s1
EC50 [3]: 16.2 µM (active)
EC50 [4]: 13 µM (active)
EC50 [5]: 62.2 µM (active)

CCN(CC)S(=O)(=O)c1ccc(-n2cnc3cc(C)c(C)cc32)nc1
IC50 (Fatty acid synthase [1]): 12.8 µM (active)
IC50 (Fatty acid synthase [2]): 11.4 µM (active)

CC(C)(C)CC(C)(C)Nc1c(-c2ccc(O)cc2)nc2cnccn12
EC50 [3]: 14.9 µM (active)
EC50 [4]: 13.9 µM (active)
EC50 [5]: 107 µM (active)

CCCN1C(=O)/C(=C/c2nc(O)c3ccccc3n2)c2ccccc21
IC50 (H9c2): > 79 µM (inactive)

Cc1cccc(NC(=O)CNC(=O)COC(=O)c2ccc(C(C)(C)C)cc2)c1C
IC50 (Fatty acid synthase [1]): 20.7 µM (inactive)
IC50 (Fatty acid synthase [2]): 14.6 µM (active)

CC(OC(=O)Cn1[nH]c(=O)c2ccccc2c1=O)C(=O)NC1(C#N)CCCCC1 (stereo not drawn)
IC50 (H9c2): > 79 µM (inactive)

O=C(Nc1ccccc1N1CCCC1)c1cc2ccccc2o1
IC50 [6]: > 66 µM (inactive)
EC50 [8]: 5.42 µM (active)
EC50 [9]: 6.1 µM (active)
IC50 [7]: > 66 µM (inactive)
EC50 (H4): 56.5 µM (active)

COc1ccc(-c2nnc(SCC(=O)Nc3ncc(C(F)(F)F)cc3Cl)n2CC(C)C)cc1
IC50 (Fatty acid synthase [1]): 3.55 µM (active)
IC50 (Fatty acid synthase [2]): 2.11 µM (active)

COc1ccc(CCN2CC3=C(C2=O)C(c2ccccc2)NC(=O)N3C)cc1OC (stereo not drawn)
EC50 [3]: > 120 µM (not active)
EC50 [4]: 24.4 µM (active)
EC50 [5]: > 120 µM (not active)

COc1ccccc1NS(=O)(=O)c1cc(NC(=O)Cc2nnc(O)c3ccccc23)ccc1Cl
IC50 (H9c2): 20 µM (active)

O=C(COc1cccc2c1CCNC2=O)Nc1ccc(F)cc1
IC50 (H9c2): 37.2 µM (inactive)

O=C(CSc1ncnc2c1cnn2-c1ccccc1)NC1CCS(=O)(=O)C1 (stereo not drawn)
IC50 (Fatty acid synthase [1]): 9.44 µM (active)
IC50 (Fatty acid synthase [2]): 7.65 µM (active)

CN(C)CCCNC(=O)CC1C[C@H](C(=O)N2CCOCC2)[C@@]2(CCC3CCCC3)c3[nH]c4ccccc4c3CCN2C1=O (stereo partly drawn)
IC50 (Fatty acid synthase [1]): 4.82 µM (active)
IC50 (Fatty acid synthase [2]): 2.12 µM (active)

O=C(CC1C[C@H](C(=O)N2CCOCC2)[C@@]2(CCC3CCCC3)c3[nH]c4ccccc4c3CCN2C1=O)NCc1ccco1 (stereo partly drawn)
IC50 (Fatty acid synthase [1]): 0.778 µM (active)
IC50 (Fatty acid synthase [2]): 1.25 µM (active)

O=C(NC1CCCCC1)N(c1ccccc1)c1nnc(-c2cccc([N+](=O)[O-])c2)s1
IC50 (Fatty acid synthase [1]): 7.21 µM (active)
IC50 (Fatty acid synthase [2]): 6.12 µM (active)

Brc1ccc(-c2ccc(/C=N/Nc3nc(N4CCOCC4)nc(N4CCOCC4)n3)o2)cc1
IC50 (H9c2): > 79 µM (inactive)

CCOc1ccc(N/C(S)=N/CCCn2ccnc2)cc1
EC50 [8]: > 120 µM (not active)
EC50 [9]: > 120 µM (not active)
EC50 (H4): > 120 µM (not active)

COc1ccc(/C=N/Nc2nc(Nc3ccccc3)nc(N3CCCCC3)n2)cc1OC
EC50 [8]: 8.28 µM (active)
EC50 [9]: 9.49 µM (active)
EC50 [10]: 16.1 µM (active)
EC50 (H4): 23.1 µM (active)
EC50 (Streptococcus): 46.3 µM (active)
EC50 (Streptokinase A): > 150 µM (not active)

C(/C=C/c1ccco1)=N/N1CCN(c2ccccc2)CC1
AC50 (Cytochrome P450 1A2): 8.91 µM (inconclusive)
AC50 (Cytochrome P450 2C19): 2 µM (inconclusive)
EC50 [8]: 17.5 µM (active)
EC50 [9]: 2.21 µM (active)
